Test results: patent US20110239322A1, “IN VITRO FLOWERING/SEED SET LEADING TO PARTIAL OR COMPLETE MALE STERILITY IN GRASSES” (THE PENN STATE RESEARCH FOUNDATION, priority 2010, published 2011)

System: shoot explant
Test: in vitro flowering on flowering medium (MS medium with growth regulators)
Design: species or system grasses
Procedure: In a preferred embodiment, seeds are washed in running tap water with a drop of soap for 5 mins and sterilized with 95% ethyl alcohol for 2 min followed by a 15 minute treatment with 10% bleach and washed three times for 5 min intervals with sterile distilled water. Ten seeds are germinated in each petriplate with MS medium with […]. After germination on MS 2,4-D, for a period of time, such as 3-7 days in the dark at 24±2° C. The flowering medium preferably comprises a substituted phenylurea cytokinin analog, such as TDZ and a cytokinin such as BAP.
Cultures are incubated at 24±2° C. under a 16/8-hour […] photoperiod provided by cool-white fluorescent lights at a quantum flux density of 30 μmol s^−1 m^−2. Following a passage of time, typically within 2 weeks, callus induction occurs, having taken the first internode of the germinated seed (on MS 4 mg/L 2,4-D medium). After about two weeks, the callus is transferred to regeneration medium, to allow for shoot induction (MS, 0.5 mg/L BAP, 0.1 mg/L 2,4-D, 38 mg/L CuSO4). During this time (shoot regeneration), cultures are incubated with necessary dark photoperiodic conditions to promote growth and to mimic natural growing conditions. Additionally, over time it may be necessary to subculture the explants with fresh MS, BAP, 2,4-D, CuSO4. […]

O=C(Nc1ccccc1)Nc1cnns1 [TDZ, 1-phenyl-3-(1,2,3-thiadiazol-5-yl)urea]
flower production on shoot explant (TDZ 2.0 mg/L combined with BAP 1.0 mg/L in flowering medium): flowers are produced directly on a shoot explant | flower production on shoots developed from callus (TDZ 1.0-2.0 mg/L without BAP): produces flowers on shoots developed from callus
